In patent publication US20180235870A1, “TRANSDERMAL FORMULATIONS FOR DELIVERY OF BERBERINE COMPOUNDS, AND THEIR USE IN THE TREATMENT OF BERBERINE-RESPONSIVE DISEASES AND CONDITIONS” (DELIVRA INC., priority 2015, published 2018):

Tests used:
[1] = Circulating berberine after chronic administration by various routes (Example 23); format: in vivo; conditions: male, rat, plasma, oral, 180 mg/kg/dose; 15 days administration BID, Zucker fa/fa rats
[2] = uptake inhibited by P-gp-mediated efflux; cited from earlier work
[3] = tested on: male Zucker rats (fa/fa); assay: Efficacy of administration routes and dihydroberberine in a model of metabolic syndrome (Example 22); format: in vivo; conditions: BID
Protocol: This study examined the efficacy of administration of a derivative of berberine (dihydroberberine) in transdermal formulations in 24 male Zucker rats (fa/fa), similar to the study protocol in Example 19. The following formulations were prepared: […] Animals were maintained without treatment until ten weeks of age at which time groups were randomized by weight and blood glucose. Animal weights were recorded daily and expressed here as percent change from Day zero.

[4] = tested on: PCSK9 expression in HEPG2 cells; assay: Berberine signaling in HEPG2: PCSK9 western blot of supernatant; format: cell-based, human; conditions: 24 hours; for expression of PCSK9 in supernatant (western blot): 25 to 3.125 ug/ml, versus negative control
Protocol: HEPG2 cells were cultured in 24 well plates to confluence in DMEM supplemented with 10% FBS. After reaching confluence, cells were incubated overnight with 0.1% FBS OPTIMEM for serum starvation. After serum starvation the cells were incubated with berberine, DHB, or THB in 0.1% FBS OPTIMEM using the following dose course: 25 ug/ml, 12.5 ug/ml 6.25 ug/ml 3.125 ug/ml for 24 hours. Supernatant was collected after stimulation and western blotted as follows:
(1) Resolved on 12.5% gel.
(3) Blocked with 3% BSA TBST (4) Rabbit anti PCSK9 (Cayman chemicals cat 10007185) at 1/600 in TTBS (5) Wash 3×5 min with TTBS (6) HRP-Goat anti-Rabbit 1/1000 (Cayman chemicals) (7) Wash 3×5 min with TTBS (8) Detection with ECL
Proprotein convertase subtilisin/kexin type 9 (PCSK9) post-transcriptionally downregulates the low-density lipoprotein receptor (LDLR) by binding to the receptor's epidermal growth factor repeat A on the cell surface and shuttling the LDLR to the lysosomes for degradation. […] Previous reports indicate that berberine has lipid lowering effects in both animal models and human trials (Arrigo F. G., Cicero, L., Rovati C. et al., 2007). The signalling effects of berberine, DHB, and THB were evaluated using the human liver cell line HEPG2. PCSK9, an enzyme that acts in cholesterol homeostasis, is expressed in HEPG2 cells and these cells have previously been used as a model of dyslipidemia. PCSK9 binds to LDL receptor causing uptake of LDL and the LDL receptor and targets both molecules for degradation upon internalization. In the absence of PCSK9, LDL and LDL receptor are still internalized, however, LDL receptor is not degraded but instead recycled to the cell surface resulting in more efficient uptake of circulating LDL.

[5] = physchem; format: physicochemical
Protocol: The berberine partition coefficient procedure was used to assess the properties of berberine, which was determined to be an overall hydrophilic molecule. […] The solution was shaken by hand for 30 seconds and allowed to stand for 5 minutes. […] The solution was mixed for one hour using a rotating tube inverter (VWR, 13916-822). A blank sample containing water and octanol (0.7 mL of each) was prepared. […] The sample was monitored using UV/V is at wavelengths 230/600 nm and 280/600 nm. Autosampler temperature was maintained at 24° C. and column was at 30° C. The two layers of the sample were injected by adjusting the injection needle height. 0 mm was used for the water layer and +11 mm was used for the octanol layer. The retention time for berberine elution is 1.4 minutes and peak areas were assigned using the onboard Agilent software based upon absorbance at 230 nm. A HPLC-UV chromatogram was recorded for each layer of the partition according the procedure described above. The area under the peak between 1.2-2.2 minutes in the chromatogram was used as a measure of concentration of berberine. A linear relationship was assumed to exist between absorbance and concentration of berberine at the concentrations evaluated. […] The area-blank (cps) was used directly in the equation below.

concentration at 15 days [1]: 101 ng/mL | berberine in the lipophilic octanol solvent [5]: ~3% | logD [5]: -0.63 | Octanol area (cps) 230 nm ([5]; Partition): 1763 cps | Water area (cps) 230 nm ([5]; Partition): 34696 cps | Octanol area (cps) 230 nm ([5]; Partition minus blank): 807 cps | Water area (cps) 230 nm ([5]; Partition minus blank): 34342 cps | berberine remaining within the water layer ([5]; octanol/water): 97%
Structure (SMILES): COc1ccc2cc3[n+](cc2c1OC)CCc1cc2c(cc1-3)OCO2 [berberine, Berberine]
bioavailability [2]: less than 5% | cholesterol levels on Day 14 (mmol/L+/−SEM) [3]: 8.3 ± 0.7 mmol/L | rate of weight gain (grams/day) [3]: 1.7 grams/day | triglyceride levels on Day 14 (mmol/L+/−SEM) [3]: 14.8 ± 3.0 mmol/L | concentration down to which expression of PCSK9 was reduced [4]: 6.25 µg/mL | expression of PCSK9 in supernatant (western blot) [4]: reduce the expression of PCSK9 | expression of PCSK9 in supernatant (western blot) ([4]; listed as Berberine): down-regulate the expression of PCSK9
